Experimental findings from US20110159019A1, “2,4-DIAMINOPYRIMIDINE COMPOUND” (priority 2008, published 2011) are described below.

For data set [1], the target named is T1, Full-length human PKCθ (Homo sapiens, UniProt Q04759).
T1 construct: Full-length human PKCθ (Carna Biosciences, final 31 ng/mL); purchased Carna Biosciences
The data set can be described thus: Measurement of human PKCθ enzyme inhibition activity (HTRF KinEASE S1 kit). Type of data set: biochemical. Here is the method:
Test Method 1: Measurement of Human PKCθ Enzyme Inhibition Activity
The test was carried out using a HTRF® KinEASE™ S1 kit (CIS bio). […] Then, 3 μL of an ATP liquid (final 30 μM) was dispensed therein to carry out an enzyme reaction at room temperature for 1 hour.
Ex represents Compound No. of Examples as described later.

Data set [2] addresses T2, Cytochrome P450 (CYP3A4) (Homo sapiens, UniProt P08684).
T2 construct: human liver microsome (0.1 mg protein/mL); from tissue; host or cells: human liver microsomes
The data set can be described thus: Measurement of cytochrome P450 (CYP3A4) enzyme inhibition activity in human liver microsome (inhibition tests I and II, midazolam substrate). In kind it is in vitro ADME. The conditions noted are these: for I (%) Remaining Rate I: inhibition test I: 5 μM test compound, 2 μM midazolam, human liver microsome, 37° C. 20 minutes, no preincubation; for II (%) Remaining Rate II: inhibition test II: 5 μM test compound preincubated 30 minutes with human liver microsome and NADPH, then 2 μM midazolam 20 minutes, relative to test I. How it is done: Test Method 3: Measurement of Cytochrome P450 (CYP3A4) Enzyme Inhibition Activity i) Inhibition Test I (Calculation of Remaining Rate I)
Using a 96-well plate, 2 μM of a substrate (midazolam), 5 μM of a test compound, and human liver microsome (0.1 mg protein/mL) were incubated at 37° C. for 20 minutes in a total amount of 150 μL of a 100 mM phosphate buffer (pH 7.4) containing 0.1 mM EDTA and 1 mM NADPH. Then, the reaction was stopped by adding 130 μl of an aqueous solution containing 80% acetonitrile. Thereafter, the samples were analyzed by LC/MS/MS, and the remaining rates I were calculated using the following equation 1.
Remaining Rate I(%)=Ai,I/Ao,I×100 (Equation 1)
Ai, I=Amount of produced metabolite after reaction in the presence of the test compound in the inhibition test I Ao, I=Amount of produced metabolite after reaction in the absence of the test compound in the inhibition test I ii) Inhibition Test II (Calculation of Remaining Rate II)
Using a 96-well plate, 5 μM of a test compound and human liver microsome (0.1 mg protein/mL) were incubated at 37° C. for 30 minutes in a total amount of 145 μL of a 100 mM phosphate buffer (pH=7.4) containing 0.1 mM EDTA and 1 mM NADPH. Then, 2 μM of midazolam as the substrate was added thereto at a total amount of 150 μL of and incubated at 37° C. for 20 minutes. After the incubation, the reaction was stopped by adding 130 μL of an aqueous solution containing 80% acetonitrile. Thereafter, the samples were analyzed by LC/MS/MS, and the remaining rate II was calculated using the following equation 2.
Remaining Rate II(%)=Ai,II/Ao,II/(Ai,I/Ao,I)×100 (Equation 2)
Ai, II=Amount of produced metabolite after reaction in the presence of the test compound in the inhibition test II […]=Amount of produced metabolite after reaction in the absence of the test compound in the inhibition test II […]
Ex represents No. of the Example Compounds as described below.

Setting [3] is: full-length human PKCθ, ATP 30 μM, HTRF, read-out: IC50 (nM), human PKCθ enzyme inhibition.

Molecules are shown by their SMILES. Read-outs that look alike come from different tables or passages of the source.

T1 sequence (Q04759 whole entry): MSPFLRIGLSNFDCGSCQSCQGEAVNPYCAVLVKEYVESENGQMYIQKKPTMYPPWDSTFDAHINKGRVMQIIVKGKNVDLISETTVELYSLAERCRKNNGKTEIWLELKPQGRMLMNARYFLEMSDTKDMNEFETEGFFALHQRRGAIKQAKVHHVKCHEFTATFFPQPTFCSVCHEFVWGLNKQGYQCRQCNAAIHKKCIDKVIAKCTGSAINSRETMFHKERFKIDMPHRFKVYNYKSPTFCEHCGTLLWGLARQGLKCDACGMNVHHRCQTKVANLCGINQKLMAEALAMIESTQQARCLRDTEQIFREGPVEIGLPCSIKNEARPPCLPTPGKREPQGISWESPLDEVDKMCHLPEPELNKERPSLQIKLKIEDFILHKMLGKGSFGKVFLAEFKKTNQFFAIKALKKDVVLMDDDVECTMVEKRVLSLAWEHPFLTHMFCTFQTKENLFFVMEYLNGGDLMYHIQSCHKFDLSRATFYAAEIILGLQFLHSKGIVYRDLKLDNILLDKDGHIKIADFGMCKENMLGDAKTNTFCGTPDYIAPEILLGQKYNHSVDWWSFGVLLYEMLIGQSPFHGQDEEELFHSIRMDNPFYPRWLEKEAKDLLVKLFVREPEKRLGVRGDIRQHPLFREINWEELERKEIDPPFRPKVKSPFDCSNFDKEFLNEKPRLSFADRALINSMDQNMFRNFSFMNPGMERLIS
T2 sequence (P08684 whole entry): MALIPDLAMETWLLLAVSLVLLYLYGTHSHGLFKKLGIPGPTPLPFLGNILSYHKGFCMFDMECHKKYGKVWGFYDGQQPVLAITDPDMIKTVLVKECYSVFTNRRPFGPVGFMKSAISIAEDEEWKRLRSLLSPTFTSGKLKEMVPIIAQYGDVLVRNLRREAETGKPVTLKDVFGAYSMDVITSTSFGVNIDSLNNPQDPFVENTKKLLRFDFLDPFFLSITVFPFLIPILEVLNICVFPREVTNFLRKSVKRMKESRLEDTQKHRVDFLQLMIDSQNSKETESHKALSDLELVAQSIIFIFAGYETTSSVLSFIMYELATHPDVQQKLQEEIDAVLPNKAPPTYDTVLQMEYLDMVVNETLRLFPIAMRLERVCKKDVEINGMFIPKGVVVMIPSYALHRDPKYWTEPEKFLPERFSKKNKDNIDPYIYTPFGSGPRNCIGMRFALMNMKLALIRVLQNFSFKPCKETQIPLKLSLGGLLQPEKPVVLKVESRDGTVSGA

As to `N#Cc1cnc(NCc2ccccc2Cl)nc1NC[C@]12CC3C[C@H](C1)[C@@H](NC[C@H]1CC[C@H](O)CC1)[C@@H](C3)C2` (relative stereo) [Example 340], the IC50 in data set [1] (setting [3]) amounted to 1.4 nM. In data set [2], the “I (%) Remaining Rate I” value stood at 91% and the “II (%) Remaining Rate II” value came out at 83%.
For `COc1ccccc1CNc1ncc(C#N)c(NC[C@]23CC4C[C@H](C2)[C@@H](N(C)CCCCO)[C@@H](C4)C3)n1` [Example 107], in that order: 5.4 nM, 77% and 84%.
With `N#Cc1cnc(NCc2ccccc2Cl)nc1NC[C@]12CC3C[C@H](C1)[C@@H](NCC1CCNCC1)[C@@H](C3)C2` [Example 321], the IC50 in data set [1] (setting [3]) came out at 0.25 nM. In data set [2], the “I (%) Remaining Rate I” value is on record as 90% and the “II (%) Remaining Rate II” value is recorded as 92%.
`COc1ccccc1CNc1ncc(C#N)c(NC[C@]23CC4C[C@H](C2)[C@@H](NCC[C@H](O)CO)[C@@H](C4)C3)n1` (relative stereo) [Example 195]: the IC50 in data set [1] (setting [3]) was 3.3 nM. Moreover, in data set [2], the “I (%) Remaining Rate I” value is given as 88% and the “II (%) Remaining Rate II” value worked out at 82%.
Taken in the same sequence, the figures for `C[C@]1(O)CC[C@H](CN[C@@H]2[C@@H]3CC4C[C@H]2C[C@@](CNc2nc(NCc5ccccc5OC(F)F)ncc2C#N)(C4)C3)CC1` (relative stereo) [Example 372] were 1.22 nM, 78% and 84%.
On to `COc1ccccc1CNc1ncc(C#N)c(NC[C@]23CC4C[C@H](C2)[C@@H](N2CC(CO)(CO)C2)[C@@H](C4)C3)n1` (relative stereo) [Example 196], for which the IC50 in data set [1] (setting [3]) was determined as 3.9 nM. Moreover, in data set [2], the “I (%) Remaining Rate I” value is listed as 86% and the “II (%) Remaining Rate II” value is 87%.
Taken in the same sequence, the figures for `N#Cc1cnc(NCc2ccccc2Cl)nc1NC[C@]12CC3C[C@H](C1)[C@@H](NC[C@H]1CC[C@@H](O)CC1)[C@@H](C3)C2` (relative stereo) [Example 401] were 0.65 nM, 84% and 89%.
Consider `CN([C@H]1CC[C@H](O)CC1)[C@@H]1[C@@H]2CC3C[C@H]1C[C@@](CNc1nc(NCc4ccccc4OC(F)(F)F)ncc1C#N)(C3)C2` [Example 115], for which the 50% inhibitory concentration (IC50) in data set [1] (setting [3]) was 3.5 nM. In data set [2], the “I (%) Remaining Rate I” value amounted to 75% and the “II (%) Remaining Rate II” value stood at 90%.
With `CSc1ccccc1CNc1ncc(C#N)c(NC[C@]23CC4C[C@H](C2)[C@@H](N[C@H]2CC[C@H](O)CC2)[C@@H](C4)C3)n1` (relative stereo) [Example 43, rel-4-[({(1R,3S,4R,5R)-4-[(trans-4-hydroxycyclohexyl)amino]adamantan-1-yl]methyl)amino}-2-{[2-(methylsulfanyl)benzyl]amino}pyrimidine-5-carbonitrile], the IC50 in data set [1] (setting [3]) worked out at 0.44 nM. For the same molecule, in data set [2], the “I (%) Remaining Rate I” value came out at 76% and the “II (%) Remaining Rate II” value came out at 99%.
Take `CSc1ncccc1CNc1ncc(C#N)c(NC[C@]23CC4C[C@H](C2)[C@@H](NC[C@H]2CC[C@H](O)CC2)[C@@H](C4)C3)n1` (relative stereo) [Example 344]: the IC50 in data set [1] (setting [3]) came out at 0.48 nM. Also, in data set [2], the “I (%) Remaining Rate I” value came to 89% and the “II (%) Remaining Rate II” value is 84%.
On to `CC(C)N1CCC(N[C@@H]2[C@@H]3CC4C[C@H]2C[C@@](CNc2nc(NCc5ccccc5OC(F)(F)F)ncc2C#N)(C4)C3)CC1` (relative stereo) [Example 246], for which the IC50 in data set [1] (setting [3]) came out at 0.31 nM.
Turning to `N#Cc1cnc(NCc2ccccc2OC(F)(F)F)nc1NC[C@]12CC3C[C@H](C1)[C@H](N[C@H]1CC[C@H](O)CC1)[C@@H](C3)C2` (relative stereo) [Example 41, rel-4-[({(1R,3S,4R,5R)-4-[(trans-4-hydroxycyclohexyl)amino]adamantan-1-yl}methyl)amino]-2-{[2-(trifluoromethoxy)benzyl]amino}pyrimidine-5-carbonitrile], the IC50 in data set [1] (setting [3]) turned out to be 14 nM. In data set [2], the “I (%) Remaining Rate I” value came out at 80% and the “II (%) Remaining Rate II” value was 102%.
In the case of `C[C@]1(O)CC[C@@H](CN[C@@H]2[C@@H]3CC4C[C@H]2C[C@@](CNc2nc(NCc5ccccc5OC(F)F)ncc2C#N)(C4)C3)CC1` (relative stereo) [Example 371], the half-inhibitory concentration (IC50) in data set [1] (setting [3]) was found to be 0.7 nM.
Still for that read-out and setting: under `N#Cc1cnc(NCc2ccccc2OC(F)(F)F)nc1NC[C@]12CC3C[C@H](C1)[C@@H](NC1CCOCC1)[C@@H](C3)C2` (relative stereo) [Example 74] stands 0.65 nM.
For the molecule `CSc1ccccc1CNc1ncc(C#N)c(NC[C@]23CC4C[C@H](C2)[C@@H](NCC[C@H](O)CO)[C@@H](C4)C3)n1` (relative stereo) [Example 200], the IC50 in data set [1] (setting [3]) was 0.28 nM. In addition, in data set [2], the “I (%) Remaining Rate I” value is given as 95% and the “II (%) Remaining Rate II” value stood at 85%.
Turning to `N#Cc1cnc(NCCc2cccc(Cl)c2)nc1NC[C@]12CC3C[C@H](C1)[C@@H](N)[C@@H](C3)C2` (relative stereo) [Example 292], the IC50 in data set [1] (setting [3]) was found to be 10 nM.
In the case of `N#Cc1cnc(NCc2ccccc2Cl)nc1NC[C@]12CC3C[C@H](C1)[C@@H](NCCN1CCC(O)CC1)[C@@H](C3)C2` (relative stereo) [Example 208], in data set [1] (setting [3]), the IC50 turned out to be 1.6 nM.
On to `N#Cc1cnc(NCc2ccccc2OC(F)(F)F)nc1NC[C@]12CC3C[C@H](C1)[C@@H](N1CCC(O)C1)[C@@H](C3)C2` (stereo partly drawn) [Example 11], for which the IC50 in data set [1] (setting [3]) was determined as 1 nM.
As to `N#Cc1cnc(NCc2ccccc2Cl)nc1NC[C@]12CC3C[C@H](C1)[C@@H](NCC1CCN(CC(F)F)CC1)[C@@H](C3)C2` (relative stereo) [Example 357], the IC50 in data set [1] (setting [3]) came to 1.2 nM.
Regarding `N#Cc1cnc(NCc2ccccc2OC(F)(F)F)nc1NC[C@]12CC3C[C@H](C1)[C@@H](N[C@H]1CC[C@@H](N)CC1)[C@@H](C3)C2` [Example 303], in data set [1] (setting [3]), the IC50 was determined as 0.065 nM. In addition, in data set [2], the “I (%) Remaining Rate I” value amounted to 75% and the “II (%) Remaining Rate II” value is listed as 88%.
With `N#Cc1cnc(NCc2ccccc2Cl)nc1NC[C@]12CC3C[C@H](C1)[C@@H](NC1CCNCC1)[C@@H](C3)C2` [Example 169], in data set [1] (setting [3]), the IC50 stood at 0.36 nM. Besides, in data set [2], the “I (%) Remaining Rate I” value was 83% and the “II (%) Remaining Rate II” value is 89%.
Consider `N#Cc1cnc(NCc2ccccc2OC(F)(F)F)nc1NCC1[C@@H]2CC3C[C@H]1C[C@@](CN)(C3)C2` (stereo partly drawn) [Example 183], for which, in data set [1] (setting [3]), the IC50 was 29 nM.
For `N#Cc1cnc(NCc2ccccc2Cl)nc1NC[C@]12CC3C[C@H](C1)[C@@H](NCC1CCN(CCF)CC1)[C@@H](C3)C2` [Example 219], half-maximal inhibition in data set [1] (IC50) required 0.4 nM. For the same molecule, in data set [2], the “I (%) Remaining Rate I” value is on record as 76% and the “II (%) Remaining Rate II” value was determined as 94%.
On to `N#Cc1cnc(NCc2ccccc2OC(F)(F)F)nc1NC[C@]12CC3C[C@H](C1)[C@@H](NC1CCC(N4CCC[C@H]4CO)CC1)[C@@H](C3)C2` (relative stereo) [Example 240], for which, in data set [1] (setting [3]), the IC50 is 0.064 nM.
